The data set is described as follows: stability of simvastatin at incubation temperature (inferred from growth inhibition). Particulars: 95° C. compared with 85° C.

For `CCC(C)(C)C(=O)O[C@H]1C[C@@H](C)C=C2C=C[C@H](C)[C@H](CC[C@@H]3C[C@@H](O)CC(=O)O3)[C@H]21` [simvastatin], the stability of simvastatin result is listed as “dramatically decreased”.

Source of the values: patent US20110262954A1, “SHUTTLE VECTOR BASED TRANSFORMATION SYSTEM FOR PYROCOCCUS FURIOSUS” (UNIVERSITAT REGENSBURG, priority 2010, published 2011).
